Entries after “also recorded” stand apart in the source; their conditions may differ.
Legend:
Aβ40 [1] = biological target: T1, Aβ40 (Homo sapiens, UniProt P05067); experiment: Mass spectrometry and IM-MS of Aβ40-ligand complexes; format: binding
T1 construct: Aβ40 and Aβ42 were purchased from AnaSpec (Fremont, Calif., USA); purchased AnaSpec
Method: The resulting solutions were allowed to react for 0, 2, 4, 8, and 24 hours at a temperature of 37° C. The samples were directly injected into the mass spectrometer at a flow rate of […]. ESI interface was operated in positive-ion mode; spray voltage was set at 4.5 kV with capillary temperature at 300° C. and capillary exit voltage at 101 V. Mass spectra were taken in the range of m/z 50 to 500.
All ion mobility-mass spectrometry (IM-MS) experiments were carried out on a Synapt G2 (Waters, Milford, Mass., USA). Samples were ionized using a nano-electrospray source operated in positive ion mode. MS instrumentation was operated at a backing pressure of 2.7 mbar and a sample cone voltage of 40 V. Data were analyzed using MassLynx 4.1 and DriftScope 2.0 (Waters, Milford, Mass., USA). Collision cross-section (CCS) measurements were calibrated externally using a database of known protein, and protein complex CCS values in helium. Lyophilized Aβ40 peptides (AnaSpec, Fremont, Calif., USA) were prepared to a stock concentration of 25 μM in 1 mM ammonium acetate (pH 7.0). […] After the reaction, all samples were lyophilized overnight prior to re-suspension of the samples in hexafluoro-2-propanol (HFIP, Sigma-Aldrich, St Louis, Mo., USA)([Aβ40]=50 μM) and sonicated under pulse settings for 5 minutes. The samples were diluted 50%, to a final Aβ40 concentration of 25 μM, using 1 mM ammonium acetate (0.5 mM final concentration) immediately prior to mass analysis.

Aβ40/Aβ42 = experiment: Inhibition of formation of Aβ aggregation (gel electrophoresis/Western blot, TEM); format: biochemical
Method: Aβ40 or Aβ42 was dissolved in ammonium hydroxide (NH4OH, 1% v/v aq), and then, aliquoted, lyophilized overnight, and stored at a temperature of −80° C. For experiments described herein, a stock solution of Aβ was prepared by dissolving lyophilized peptide in 1% NH4OH (10 μL) and diluted with deionized distilled water (ddH2O).
The concentration of Aβ peptides in the solution was determined by measuring the absorbance of the solution at 280 nm (E=1450 M^−1 cm^−1 for Aβ40; and ε=1490 M^−1 cm^−1 for Aβ42).
(§1) The peptide stock solution was diluted to a final concentration of 25 μM in Chelex-treated buffered solution containing [4-(2-hydroxyethyl)-1-piperazine ethane sulfonic acid; […]; pH 6.6 for Cu(II) samples; pH 7.4 for metal-free and Zn(II) samples] (HEPES) and NaCl ([…]).
(§2) The samples from studies on the inhibition of formation of Aβ aggregation and the breakdown of Aβ aggregation were analyzed by gel electrophoresis with Western blotting using an anti-Aβ antibody (6E10).
Each sample (10 μL) was separated on a 10-20% Tris-tricine gel (Invitrogen, Grand island, NY, USA), and the protein samples obtained therefrom were transferred onto a nitrocellulose membrane which was blocked with bovine serum albumin (BSA, 3% w/v, Sigma-Aldrich, St. Louis, Mo., USA) in Tris-buffered saline containing 0.1% Tween-20 (TBS-T; 1.00 mM Tris base, pH 8.0, 1.50 mM NaCl) at room temperature for 2 hours. […]

Aβ40/Aβ42 aggregates [2] = biological target: T2, Aβ40/Aβ42 aggregates (Homo sapiens, UniProt P05067); experiment: Breakdown of preformed Aβ aggregation (gel electrophoresis/Western blot, TEM); format: biochemical; conditions: regardless of presence or absence of metals
T2 construct: Aβ40 and Aβ42 were purchased from AnaSpec (Fremont, Calif., USA); purchased AnaSpec
T2 sequence (P05067 672-713): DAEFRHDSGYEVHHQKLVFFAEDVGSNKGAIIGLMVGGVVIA
Method: as §1, §2
(§3) Each sample (10 μL) was separated on a 10-20% Tris-tricine gel (Invitrogen, Grand island, NY, USA), and the protein samples obtained therefrom were transferred onto a nitrocellulose membrane which was blocked with bovine serum albumin (BSA, 3% w/v, Sigma-Aldrich, St. Louis, Mo., USA) in Tris-buffered saline containing 0.1% Tween-20 (TBS-T; 1.00 mM Tris base, pH 8.0, 1.50 mM NaCl) at room temperature for 2 hours.
(§4) Afterwards, the membranes were incubated with a primary antibody (6E10, Covance, Princeton, N.J., USA; 1:2000) in a solution of 2% w/v BSA (in TBS-T) overnight at 4° C. After washing with TBS-T (three times, each for 10 minutes), the horseradish peroxidase-conjugated goat antimouse secondary antibody (1:5000; Cayman Chemical Company, Ann Arbor, Mich., USA) in 2% w/v BSA (in TBS-T) was added for 1 hour at room temperature. […]

Aβ40/Aβ42 aggregates [3] = experiment: as above; format: biochemical; conditions: Aβ preincubated 24 hours at 37° C., then DMPD 50 μM
Method: as §1, §2, §3, §4

[4] = test system: SK-N-BE(2)-M17 (M17) cell line; experiment: Cell viability (MTT) of Aβ40- or metal-Aβ40-treated M17 cells; format: cell-based, human; conditions: Aβ:metal:ligand 10:10:20 μM, 24 hours, relative to the untreated cells
Method: The human neuroblastoma, i.e., SK-N-BE(2)-M17 (M17) cell line, was purchased from the American Type Culture Collection (ATCC, Manassas, Va., USA).
The cell line was maintained in media containing Minimum Essential Media (MEM; GIBCO, Life Technologies, Grand Island, N.Y., USA) and Ham's F12K Kaighn's Modification Media (F12K; GIBCO) at a ratio of 1:1, 10% (v/v) fetal bovine serum (FBS; Atlanta Biologicals, Flowery Branch, Ga., USA), 100 U/mL penicillin (GIBCO), and […] streptomycin (GIBCO). The cells were grown and maintained at a temperature of 37° C. in a humidified atmosphere with 5% CO2.
After completing the incubation at a temperature of 37° C. for 24 hours, 25 μL of [3-(4,5-dimethylthiazol-2-yl)-2,5-diphenyltetrazolium bromide; 5 mg/mL in phosphate buffered saline (PBS), pH7.4, GIBCO] (MTT) was added to each well, and then, the plates were incubated at a temperature of 37° C. for 4 hours.
Formazan produced by the cells was dissolved in a solution containing N,N-dimethylformamide (DMF, 50% v/v aq, pH 4.5) and sodium dodecyl sulfate (SDS, 20% w/v) overnight at room temperature. Subsequently, absorbance at 600 nm was measured on a microplate reader.

Aβ40 [5] = biological target: T1, Aβ40; experiment: Isothermal titration calorimetry (ITC); format: binding
Method: The ligand solution (10 μL) was titrated into the Aβ40 solution (1.4 mL) at 25° C. over 1 second with 25 injections with a constant interval of […] a 250 μL syringe rotating at 310 rpm. In a control experiment, the identical titrant solution was injected into the same buffer used with Aβ40 to measure the heat of dilution.
A reasonable heat of binding value was calculated by subtracting the heat of dilution value from the overall heat change. Titration data were analyzed with the MicroCal Origin (v. 7.0). The values of Ka (association constant) and […] each ligand upon binding to Aβ40 was determined from a proper fitting model. The binding curves were best fit to a sequential binding model with three binding sites. The values of −TΔS and ΔG were calculated from the Gibb's free energy relationship [(ΔG=ΔH−TΔS; ΔG=−RT ln(Ka)].

[6] = biological target: T3, Cu(II)-loaded Aβ42 fibrils (Homo sapiens, UniProt P05067); experiment: Cu K-edge X-ray absorption spectroscopy; conditions: DMPD 2 equivalents, 24 hours, anaerobic
T3 construct: Aβ40 and Aβ42 were purchased from AnaSpec (Fremont, Calif., USA); purchased AnaSpec
T3 sequence (P05067 672-713 limits assumed): as the sequence (P05067 672-713) above
Method: Aβ42 was monomerized according to the methods previously described (Biochemistry 44, 5478-5487, 2005; J. Am. Chem. Soc. 126, 13534-13538, 2004), and fibrils of Aβ42 were grown according to protocols known in the art (Biochemistry, 47, 5006-5016, 2008). Following monomerizatino of fibrillization, all samples were treated under an anaerobic atmosphere (N2) in a COY anaerobic chamber (COY Laboratory, Grass Lake, Mich., USA).
Aβ42 was dissolved in a mixture of 10 mM of N-ethylmorpholine buffer (pH 7.4) and glycerol (used as a deicing agent) that were mixed at a ratio of 4:1, and then, an equivalent amount of CuCl2 was added thereto. Aβ42 monomers were maintained at 5° C., and all procedures performed rapidly to avoid aggregation. […]
Following the reaction with DMPD, the solutions were injected into Lucite sample holders with Kapton tape windows, and then, quickly frozen in liquid nitrogen. All data were recorded on beamline X-3b at the National Synchrotron Light Source (Brookhaven National Laboratories, Upton, N.Y., USA). […]
Data were collected as fluorescence spectra using a Canberra 31 element Ge solid-state detector with a 3 micron Ni filter placed between the sample and detector, and calibrated against a simultaneously collected spectrum of Cu-foil (first inflection point 8980.3 eV). […]

Aβ40 [7] = experiment: Cerebral Aβ40 by ELISA in 5×FAD mice; format: in vivo, mouse; conditions: 1 mg/kg/day intraperitoneal, 30 days
Excerpt: (§5) 5×FAD mice were selected for this study since they develop early and severe phenotypes of AD and behavioral dysfunction.
(§6) Cerebral Aβ peptides were quantified by the enzyme-linked immunosorbent assay (ELISA).

Aβ42 = experiment: Cerebral Aβ42 by ELISA in 5×FAD mice; format: in vivo, mouse; conditions: 1 mg/kg/day intraperitoneal, 30 days
Excerpt: as §5, §6

amyloid plaques = experiment: Histopathological evaluation of amyloid deposition load in 5×FAD mice; format: in vivo, mouse; conditions: 1 mg/kg/day intraperitoneal, 30 days
Excerpt: as §5

5×FAD mice = experiment: Morris water maze test in 5×FAD mice; format: in vivo, mouse
Method: Three hours after the final Morris water maze test, to confirm the performance of long-term memory retention, the probe trials, where the escape platform was removed, was carried out, and the mice located its previous position in the water for 60 seconds.

[8] = Gross appearance and body weight of 5×FAD mice; format: in vivo, mouse; conditions: at conclusion of 30-day treatment, 1 mg/kg/day intraperitoneal
Excerpt: as §5

[9] = sequential binding model, three sites, 25° C., pH 7.4
[10] = probe trial 60 seconds, three hours after final test, vs vehicle-treated 5×FAD mice

T1 sequence (P05067 672-711 limits assumed): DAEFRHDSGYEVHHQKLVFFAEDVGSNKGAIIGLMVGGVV

## O=C1C=CC(=O)C=C1 [BQ, benzoquinone]
Aβ40 [1]; identical conditions as DMPD
  binding to Aβ40 (MS): binds to Aβ40
Aβ40 [1]; ligand 50 μM, Aβ40 25 μM, 24 hours
  mass added to Aβ40 on ligand treatment (mass shift): 104.1±0.1 Da

## CN(C)c1ccc(N)cc1 [DMPD, N,N-dimethyl-p-phenylenediamine]
Aβ40/Aβ42; DMPD 50 μM, Aβ 25 μM, with or without CuCl2/ZnCl2 25 μM, 37° C., 24 hours, aerobic
  effect on formation of metal-free or metal-induced Aβ aggregates: inhibited the formation of Aβ aggregates
Aβ40/Aβ42; anaerobic condition
  modulation of Aβ aggregation under anaerobic condition: not observed
Aβ40/Aβ42 aggregates [2]
  reactivity toward Aβ42 aggregates: less reactivity toward Aβ42 aggregates
Aβ40/Aβ42 aggregates [3]
  transformation of preformed metal-free and metal-Aβ40/Aβ42 aggregates: significant effects on the transformation; also recorded: modified the formed Aβ aggregates to relatively smaller and less structured Aβ aggregates
[4]
  increase of viability: 10-20%
Aβ40 [5]; calculated, ΔG=ΔH−TΔS
  TΔS1: 6.81 ± 0.201 kcal/mol
  TΔS2: 7.48 ± 0.0884 kcal/mol
  TΔS3: -2.13 ± 0.155 kcal/mol
Aβ40 [5]; calculated, ΔG=−RT ln(Ka)
  ΔG1: -7.43 ± 0.184 kcal/mol
  ΔG2: -6.33 ± 0.0382 kcal/mol
Aβ40 [5]; sequential binding model, site 1
  ΔH1: -0.629 ± 0.0837 kcal/mol
Aβ40 [5]; sequential binding model, site 2
  ΔH2: 1.14 ± 0.801 kcal/mol
Aβ40 [5]; sequential binding model, site 3
  ΔH3: -8.37 ± 1.52 kcal/mol
Aβ40 [5]; [9]
  Ka1: 2.85 ± 0.88 × 10^5 M^−1
  Ka2: 4.34 ± 2.88 × 10^4 M^−1
  Ka3: 3.73 ± 2.22 × 10^4 M^−1
[6]
  effect on Cu(II) in Cu(II)-loaded Aβ42 fibrils: complete reduction of Cu(II)
Aβ40 [1]; IM-MS, 4+ charge state
  ion mobility arrival time of Aβ40 complex versus apo state: significantly decreased
Aβ40 [7]
  reduction of FA-soluble Aβ40: ca. 50%
  reduction of SDS-soluble Aβ40: ca. 68%
Aβ40 [7]; vs vehicle-treated
  decrease of total level of Aβ40 (PBS-, SDS- and FA-soluble): ca. 65%
Aβ42
  reduction of FA-soluble Aβ42: ~32%
  reduction of SDS-soluble Aβ42: ~67%
Aβ42; vs vehicle-treated
  decrease of total level of Aβ42 (PBS-, SDS- and FA-soluble): ~47%
Amyloid plaques
  reduction of load of APP/Aβ-immunoreactive 4G8-stained amyloid plaques: ca. 23%
  reduction of load of Congo red-stained amyloid plaques: ~20%
5×FAD mice; final five days of DMPD treatment, hidden platform
  spatial learning and memory capability: prominently improved
5×FAD mice; [10]
  time in the target quadrant (NW) in probe trial: significantly more time
  time to reach the platform area in probe trial: distinguishably less time
[8]
  gross appearance or body weight versus vehicle-treated mice: no significant difference

From US20160243059A1 (UNIST Academy-Industry Research Corporation, priority 2015, published 2016)
